Consider four molecules from ChEMBL document CHEMBL2062415, “Steroids from Commiphora mukul display antiproliferative effect against human prostate cancer PC3 cells via induction of apoptosis” (Bioorg Med Chem Lett, 2012).

SMILES strings stand for the structures.

The subject of one experiment is DU-145. Description: Cytotoxicity against human DU145 cells after 24 hrs by MTT assay. As to conditions: DU-145, 24 h. It is filed as functional, cell-based.
In experiment [1] the test system is K562. Description: Cytotoxicity against human K562 cells after 24 hrs by MTT assay. It is filed as functional, cell-based. To be noted: K562, 24 h. (Tetrazolium dyes change colour on reduction, which living cells bring about.)
In experiment [2] the test system is PC-3. In words: Cytotoxicity against human PC3 cells after 24 hrs by MTT assay. It is filed as functional, cell-based. To be noted: PC-3, 24 h.
In experiment [3] the test system is MCF7. Description: Cytotoxicity against human MCF7 cells after 24 hrs by MTT assay. It is filed as functional, cell-based. To be noted: MCF7, 24 h.
Experiment [4] deals with PC-3. Description: Induction of apoptosis in human PC3 cells assessed as early apoptotic cells at 40 uM after 48 hrs by annexinV/propidium iodide staining-based FITC analysis relative to control. It is filed as functional.
The test system of experiment [5] is PC-3. In words: Cell cycle arrest in human PC3 cells assessed as accumulation at G2/M phase at 30 uM after 48 hrs by propidium iodide staining-based flow cytometric analysis relative to control. It is filed as functional.
In experiment [6] the test system is PC-3. In words: Induction of apoptosis in human PC3 cells assessed as late apoptotic cells at 30 uM after 48 hrs by annexinV/propidium iodide staining-based FITC analysis relative to control. It is filed as functional.
In experiment [7] the test system is PC-3. In words: Cell cycle arrest in human PC3 cells assessed as accumulation at S phase at 30 uM after 48 hrs by propidium iodide staining-based flow cytometric analysis relative to control. It is filed as functional. On the technique in general: Flow cytometry measures light scatter and fluorescence of single cells or particles in a stream.
For experiment [8], the system named is PC-3. In words: Cell cycle arrest in human PC3 cells assessed as accumulation at G2/M phase at 20 uM after 48 hrs by propidium iodide staining-based flow cytometric analysis relative to control. It is filed as functional.
The test system of experiment [9] is PC-3. Description: Induction of apoptosis in human PC3 cells assessed as early apoptotic cells at 20 uM after 48 hrs by annexinV/propidium iodide staining-based FITC analysis relative to control. It is filed as functional.
Experiment [10] deals with PC-3. Description: Cell cycle arrest in human PC3 cells assessed as accumulation at G0/G1 phase after 48 hrs by propidium iodide staining-based flow cytometric analysis. It is filed as functional.
In experiment [11] the test system is PC-3. Description: Induction of apoptosis in human PC3 cells assessed as necrotic cells at 30 uM after 48 hrs by annexinV/propidium iodide staining-based FITC analysis relative to control. It is filed as functional.
Experiment [12] deals with PC-3. In words: Cell cycle arrest in human PC3 cells assessed as accumulation at G0/G1 phase at 20 uM after 48 hrs by propidium iodide staining-based flow cytometric analysis relative to control. It is filed as functional.
Experiment [13] concerns PC-3. In words: Cell cycle arrest in human PC3 cells assessed as accumulation at S phase at 20 uM after 48 hrs by propidium iodide staining-based flow cytometric analysis relative to control. It is filed as functional.
Experiment [14] has as its system MCF7. In words: Cytotoxicity against human MCF7 cells assessed as cell viability at 10 uM after 24 hrs by MTT assay. It is filed as functional. To be noted: MCF7, 24 h, read-out: Activity.
Experiment [15] concerns PC-3. In words: Cell cycle arrest in human PC3 cells assessed as accumulation at S phase at 40 uM after 48 hrs by propidium iodide staining-based flow cytometric analysis relative to control. It is filed as functional.
Experiment [16] concerns PC-3. In words: Induction of apoptosis in human PC3 cells assessed as late apoptotic cells at 20 uM after 48 hrs by annexinV/propidium iodide staining-based FITC analysis relative to control. It is filed as functional.
Experiment [17] relates to PC-3. Description: Induction of apoptosis in human PC3 cells assessed as early apoptotic cells at 30 uM after 48 hrs by annexinV/propidium iodide staining-based FITC analysis relative to control. It is filed as functional.
In experiment [18] the test system is PC-3. In words: Cytotoxicity against human PC3 cells assessed as cell viability at 10 uM after 24 hrs by MTT assay. As to conditions: PC-3, 24 h, read-out: Activity. It is filed as functional.
Experiment [19] relates to PC-3. Description: Cell cycle arrest in human PC3 cells assessed as accumulation at G0/G1 phase at 40 uM after 48 hrs by propidium iodide staining-based flow cytometric analysis relative to control. It is filed as functional.
Experiment [20] relates to PC-3. In words: Cell cycle arrest in human PC3 cells assessed as accumulation at G0/G1 phase at 30 uM after 48 hrs by propidium iodide staining-based flow cytometric analysis relative to control. It is filed as functional.
In experiment [21] the test system is PC-3. Description: Induction of apoptosis in human PC3 cells assessed as necrotic cells at 20 uM after 48 hrs by annexinV/propidium iodide staining-based FITC analysis relative to control. It is filed as functional.
The subject of experiment [22] is K562. Description: Cytotoxicity against human K562 cells assessed as cell viability at 10 uM after 24 hrs by MTT assay. It is filed as functional. As to conditions: K562, 24 h, read-out: Activity.
In experiment [23] the test system is PC-3. Description: Induction of apoptosis in human PC3 cells assessed as necrotic cells at 40 uM after 48 hrs by annexinV/propidium iodide staining-based FITC analysis relative to control. It is filed as functional.
For experiment [24], the system named is PC-3. In words: Induction of apoptosis in human PC3 cells assessed as late apoptotic cells at 40 uM after 48 hrs by annexinV/propidium iodide staining-based FITC analysis relative to control. It is filed as functional.
Experiment [25] concerns PC-3. Description: Cell cycle arrest in human PC3 cells assessed as accumulation at G2/M phase at 40 uM after 48 hrs by propidium iodide staining-based flow cytometric analysis relative to control. It is filed as functional.
Experiment [26] relates to PC-3. In words: Induction of apoptosis in human PC3 cells assessed as necrotic cells at 10 uM after 48 hrs by annexinV/propidium iodide staining-based FITC analysis relative to control. It is filed as functional.
The subject of experiment [27] is PC-3. Description: Cell cycle arrest in human PC3 cells assessed as accumulation at S phase at 10 uM after 48 hrs by propidium iodide staining-based flow cytometric analysis relative to control. It is filed as functional.
Experiment [28] has as its system PC-3. Description: Cell cycle arrest in human PC3 cells assessed as accumulation at G2/M phase at 10 uM after 48 hrs by propidium iodide staining-based flow cytometric analysis relative to control. It is filed as functional.
The test system of experiment [29] is PC-3. Description: Induction of apoptosis in human PC3 cells assessed as late apoptotic cells at 10 uM after 48 hrs by annexinV/propidium iodide staining-based FITC analysis relative to control. It is filed as functional.
Experiment [30] relates to PC-3. In words: Cell cycle arrest in human PC3 cells assessed as accumulation at G0/G1 phase at 10 uM after 48 hrs by propidium iodide staining-based flow cytometric analysis relative to control. It is filed as functional.
Experiment [31] has as its system PC-3. Description: Induction of apoptosis in human PC3 cells assessed as early apoptotic cells at 10 uM after 48 hrs by annexinV/propidium iodide staining-based FITC analysis relative to control. It is filed as functional.

Regarding `COc1cccc2c1C(=O)c1c(O)c3c(c(O)c1C2=O)C[C@@](O)(C(=O)CO)C[C@@H]3O[C@H]1C[C@H](N)[C@H](O)[C@H](C)O1` [DOXORUBICIN], the IC50 amounted to 13.2 µM with DU-145, 3.79 µM in the experiment on K562 [1], 8.46 µM in the experiment on PC-3 [2] and 1.37 µM in the experiment with MCF7 [3].
Consider `CC[C@H](/C=C/[C@@H](C)[C@H]1CC[C@H]2[C@@H]3CC=C4C[C@@H](O)CC[C@]4(C)[C@H]3[C@H](O)C[C@]12C)C(C)C`, for which the Activity with PC-3 [4] was 1.32%; in the experiment with PC-3 [5], 13.33%; in the experiment with PC-3 [6] it was 2.95%; in the experiment with PC-3 [7], 16.4%; in the experiment with PC-3 [8] it was 18.47%; in the experiment on PC-3 [9], 1.77%. Moreover, the Activity result with PC-3 [10] is “Dose-dependent effect”; in the experiment with PC-3 [11], 1.41%; with PC-3 [12] it was 59.89%; in the experiment on PC-3 [13] it was 21.63%; with PC-3 [15] it was 11.24%; with PC-3 [16], 1.91%. Also, the Activity turned out to be 1.14% with PC-3 [17]; 76.37% in the experiment on PC-3 [19]; 70.27% in the experiment on PC-3 [20]; 0.96% with PC-3 [21]; 1.52% with PC-3 [23]; 2.49% in the experiment on PC-3 [24]. Moreover, the Activity with PC-3 [25] was 12.39%. Also, the IC50 in the experiment with DU-145 was found to be 46.8 µM; in the experiment on K562 [1], 7.18 µM; in the experiment on PC-3 [2], 32.4 µM; in the experiment on MCF7 [3], 13.5 µM. The viability at 10 µM was 68% with MCF7 [14], 94.5% in the experiment on PC-3 [18] and 43% in the experiment on K562 [22].
As to `C/C=C1\C(=O)C[C@H]2[C@@H]3CCC4=CC(=O)CC[C@]4(C)[C@H]3CC[C@]12C` [GUGGULSTERONE], the viability at 10 µM was 65% in the experiment on MCF7 [14], 80% in the experiment on PC-3 [18] and 84% with K562 [22].
In the case of `CC[C@H](/C=C/[C@@H](C)[C@H]1CC[C@H]2[C@@H]3CC=C4C[C@@H](O)CC[C@]4(C)[C@H]3CC[C@]12C)C(C)C` [STIGMASTEROL], the Activity in the experiment on PC-3 [4] was determined as 2.73%; with PC-3 [26] it was 1.05%; with PC-3 [27], 26.9%; in the experiment with PC-3 [28], 21.03%; with PC-3 [8], 18.19%; with PC-3 [29], 3.18%. Besides, the Activity with PC-3 [9] amounted to 2.3%; with PC-3 [12] it was 51.41%; with PC-3 [13] it was 30.4%; in the experiment on PC-3 [15], 36.4%; in the experiment with PC-3 [16], 3.77%; with PC-3 [19], 50.58%. In addition, the Activity is reported as 52.07% in the experiment on PC-3 [30]; 1.51% in the experiment on PC-3 [21]; 2.07% in the experiment on PC-3 [23]; 5.42% in the experiment with PC-3 [24]; 21.03% in the experiment with PC-3 [25]; 2.78% with PC-3 [31]. The IC50 was 22.7 µM with DU-145, 11.1 µM in the experiment with K562 [1], 18.3 µM in the experiment on PC-3 [2] and 21.4 µM with MCF7 [3]. The results for the viability at 10 µM with MCF7 [14], in the experiment on PC-3 [18] and in the experiment on K562 [22] were 68%, 60% and 43%, respectively.

For orientation: IC50 means the concentration needed to halve the response being measured. Read a high IC50 as lower potency.
